The results in this text go back to patent publication US8815881B2 (Hoffmann-La Roche Inc., priority 2010, dated 2014).

Structures are written as SMILES. pIC50: −log10 of the molar value.

This assay addresses endogenous cellular BACE2 in the Ins1e rat cell line (Rattus norvegicus (Rat), UniProt Q6IE75). The assay is described as follows: Assay for BACE inhibition by measuring cellular TMEM27 cleavage (ELISA of shed hTMEM27 from INS-TMEM27 cells). Format: cell-based. The conditions noted are these: assay a): cellular TMEM27 cleavage, INS-TMEM27 cells (superscript a). In short, it runs like this: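 Shed human TMEM27 is quantified by ELISA in medium of TetOn INS1e cells after 46 h at 37 °C. Compound is dosed across a concentration range, followed 2 h later by doxycycline induction at 500 ng/ml. Each concentration's readout is curve-fitted to give the EC50.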
(In general: An ELISA detects its analyte on a solid surface through an enzyme-linked reagent.)

Sequence of endogenous cellular BACE2 in the Ins1e rat cell line (Q6IE75 63-514): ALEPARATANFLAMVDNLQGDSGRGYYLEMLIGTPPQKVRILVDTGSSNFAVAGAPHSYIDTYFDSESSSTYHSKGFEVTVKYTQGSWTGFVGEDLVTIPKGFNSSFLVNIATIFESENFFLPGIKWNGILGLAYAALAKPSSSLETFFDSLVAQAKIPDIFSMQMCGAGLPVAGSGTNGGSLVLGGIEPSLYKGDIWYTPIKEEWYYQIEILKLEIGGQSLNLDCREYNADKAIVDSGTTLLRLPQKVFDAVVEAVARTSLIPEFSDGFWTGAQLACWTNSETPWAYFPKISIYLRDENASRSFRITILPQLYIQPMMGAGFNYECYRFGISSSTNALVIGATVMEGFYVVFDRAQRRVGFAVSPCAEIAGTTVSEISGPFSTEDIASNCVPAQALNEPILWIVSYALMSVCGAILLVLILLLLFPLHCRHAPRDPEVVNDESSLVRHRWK

With `CCOC(=O)N1CCC(Nc2ccc(F)c([C@@]3(C)N=C(N)N(C)C(=O)C3(C)C)c2)C1` (stereo partly drawn) [Example 23, 3-[3-((S)-2-Amino-1,4,5,5-tetramethyl-6-oxo-1,4,5,6-tetrahydro-pyrimidin-4-yl)-4-fluoro-phenylamino]-pyrrolidine-1-carboxylic acid ethyl ester], the pIC50 (commonly the negative decadic logarithm of the IC50, by convention in mol/L) was 8.15.

`CN1C(=O)C(C)(C)[C@@](C)(c2cc(NC(=O)CC3CCCC3)ccc2F)N=C1N` [Example 26, (S)—N-(3-(2-amino-1,4,5,5-tetramethyl-6-oxo-1,4,5,6-tetrahydropyrimidin-4-yl)-4-fluorophenyl)-2-cyclopentylacetamide]: the pIC50 is 6.56.

Compound `CN1C(=O)C(C)(C)[C@@](C)(c2cc(NC3CCOc4cc(F)ccc43)ccc2F)N=C1N` (stereo partly drawn) [Example 140, (S)-2-Amino-6-[2-fluoro-5-(7-fluoro-chroman-4-ylamino)-phenyl]-3,5,5,6-tetramethyl-5,6-dihydro-3H-pyrimidin-4-one] had a pIC50 of 7.33.

As for `CC1CCCC1Nc1ccc(F)c([C@@]2(C)N=C(N)N(C)C(=O)C2(C)C)c1` (stereo partly drawn) [Example 25, (S)-2-Amino-6-[2-fluoro-5-(2-methyl-cyclopentylamino)-phenyl]-3,5,5,6-tetramethyl-5,6-dihydro-3H-pyrimidin-4-one], the pIC50 was 8.40.

Compound `COc1ccc(C(F)(F)F)cc1Nc1ccc(F)c([C@@]2(C)N=C(N)N(C)C(=O)C2(C)C)c1` [Example 121, (S)-2-Amino-6-(2-fluoro-5-(2-methoxy-5-(trifluoromethyl)phenylamino)phenyl)-3,5,5,6-tetramethyl-5,6-dihydropyrimidin-4(3H)-one] showed a negative-log IC50 (pIC50) of 8.05.

`CN1C(=O)C(C)(C)[C@@](C)(c2cc(NC(=O)C3CC3)ccc2F)N=C1N` [Example 17, (S)—N-(3-(2-Amino-1,4,5,5-tetramethyl-6-oxo-1,4,5,6-tetrahydropyrimidin-4-yl)-4-fluorophenyl)cyclopropanecarboxamide] had a pIC50 of 6.44.

Consider `CN1C(=O)C(C)(C)[C@@](C)(c2cc(NC(=O)[C@H]3CC3(F)F)ccc2F)N=C1N` [Example 9, (R)-2,2-Difluoro-cyclopropanecarboxylic acid [3-((S)-2-amino-1,4,5,5-tetramethyl-6-oxo-1,4,5,6-tetrahydro-pyrimidin-4-yl)-4-fluoro-phenyl]-amide], for which the pIC50 was 7.60.

`Cc1ccccc1Nc1ccc(F)c([C@@]2(C)N=C(N)N(C)C(=O)C2(C)C)c1` [Example 55, (S)-2-Amino-6-(2-fluoro-5-(o-tolylamino)phenyl)-3,5,5,6-tetramethyl-5,6-dihydro-pyrimidin-4(3H)-one]: the pIC50 was 6.94.

For the compound `COc1cc(F)ccc1Nc1ccc(F)c([C@@]2(C)N=C(N)N(C)C(=O)C2(C)C)c1` [Example 82, (S)-2-Amino-6-(2-fluoro-5-(4-fluoro-2-methoxyphenylamino)phenyl)-3,5,5,6-tetramethyl-5,6-dihydropyrimidin-4(3H)-one], the pIC50 was 6.87.

`CN1C(=O)C(C)(C)[C@@](C)(c2cc(NCC(F)(F)F)ccc2F)N=C1N` [Example 75, (S)-2-Amino-6-(2-fluoro-5-(2,2,2-trifluoroethylamino)phenyl)-3,5,5,6-tetramethyl-5,6-dihydropyrimidin-4(3H)-one] gave a pIC50 of 7.92.

`CN1C(=O)C(C)(C)[C@@](C)(c2cc(NC3CCc4cc(Cl)cnc43)ccc2F)N=C1N` (stereo partly drawn) [Example 62, (6S)-2-Amino-6-(5-(3-chloro-6,7-dihydro-5H-cyclopenta[b]pyridin-7-ylamino)-2-fluorophenyl)-3,5,5,6-tetramethyl-5,6-dihydropyrimidin-4(3H)-one] gave a pIC50 of 9.00.

Compound `CN1C(=O)C(C)(C)[C@@](C)(c2cc(NC3CCc4cccc(Cl)c43)ccc2F)N=C1N` (stereo partly drawn) [Example 49, (S)-2-Amino-6-[5-(7-chloro-indan-1-ylamino)-2-fluoro-phenyl]-3,5,5,6-tetramethyl-5,6-dihydro-3H-pyrimidin-4-one] had a pIC50 of 6.49.

In turn, `CN1C(=O)C(C)(C)[C@@](C)(c2cc(NC3CCOCC3)ccc2F)N=C1N` [Example 50, (S)-2-Amino-6-[2-fluoro-5-(tetrahydro-pyran-4-ylamino)-phenyl]-3,5,5,6-tetramethyl-5,6-dihydro-3H-pyrimidin-4-one] showed a pIC50 of 7.66.

`CN1C(=O)C(C)(C)[C@@](C)(c2cc(NC3CC4CC3CC4O)ccc2F)N=C1N` (stereo partly drawn) [Example 101, (6S)-2-Amino-6-(2-fluoro-5-(5-hydroxybicyclo[2.2.1]heptan-2-ylamino)phenyl)-3,5,5,6-tetramethyl-5,6-dihydropyrimidin-4(3H)-one] gave a pIC50 of 9.00.

`C[C@@]1(c2cccc(NC(=O)C3(C(F)(F)F)CC3)c2)CC(=O)N(CC2CC2)C(N)=N1` [Example 13, 1-Trifluoromethyl-cyclopropanecarboxylic acid [3-((S)-2-amino-1-c-cyclopropylmethyl-4-methyl-6-oxo-1,4,5,6-tetrahydro-pyrimidin-4-yl)-phenyl]-amide] gave a pIC50 of 6.72.

The compound `CN1C(=O)C(C)(C)[C@@](C)(c2cc(NC(=O)C3(C(F)(F)F)CCC3)ccc2F)N=C1N` [Example 4, 1-Trifluoromethyl-cyclobutanecarboxylic acid [3-((S)-2-amino-1,4,5,5-tetramethyl-6-oxo-1,4,5,6-tetrahydro-pyrimidin-4-yl)-4-fluoro-phenyl]-amide] had a pIC50 of 7.07.

In the case of `Cc1cc(CNc2ccc(F)c([C@@]3(C)N=C(N)N(C)C(=O)C3(C)C)c2)no1` [Example 104, (S)-2-Amino-6-{2-fluoro-5-[(5-methyl-isoxazol-3-ylmethyl)-amino]-phenyl}-3,5,5,6-tetramethyl-5,6-dihydro-3H-pyrimidin-4-one], the pIC50 was 8.40.

As to `CN1C(=O)C(C)(C)[C@@](C)(c2cc(NC(=O)[C@](C)(O)C(F)(F)F)ccc2F)N=C1N` [Example 143, (S)—N-(3-((S)-2-amino-1,4,5,5-tetramethyl-6-oxo-1,4,5,6-tetrahydropyrimidin-4-yl)-4-fluorophenyl)-3,3,3-trifluoro-2-hydroxy-2-methylpropanamide], the pIC50 was 7.36.

`CN1C(=O)C(C)(C)[C@@](C)(c2cc(NC(=O)C3(O)CC3)ccc2F)N=C1N` [Example 134, 1-Hydroxy-cyclopropanecarboxylic acid [3-((S)-2-amino-1,4,5,5-tetramethyl-6-oxo-1,4,5,6-tetrahydro-pyrimidin-4-yl)-4-fluoro-phenyl]-amide] gave a pIC50 of 6.13.

As for `CC(Nc1ccc(F)c([C@@]2(C)N=C(N)N(C)C(=O)C2(C)C)c1)c1ccn[nH]1` (stereo partly drawn) [Example 111, (S)-2-Amino-6-{2-fluoro-5-[1-(2H-pyrazol-3-yl)-ethylamino]-phenyl}-3,5,5,6-tetramethyl-5,6-dihydro-3H-pyrimidin-4-one], the pIC50 was 7.34.

`CN1C(=O)C(C)(C)[C@@](C)(c2cc(Nc3cccc4c3OCC4)ccc2F)N=C1N` [Example 157, (S)-2-Amino-6-(5-(2,3-dihydrobenzofuran-7-ylamino)-2-fluorophenyl)-3,5,5,6-tetramethyl-5,6-dihydropyrimidin-4(3H)-one]: the pIC50 was 6.18.

Consider `CN1C(=O)C(C)(C)[C@@](C)(c2cc(NC3CCc4cc(Cl)ccc43)ccc2F)N=C1N` (stereo partly drawn) [Example 29, (S)-2-Amino-6-[5-(5-chloro-indan-1-ylamino)-2-fluoro-phenyl]-3,5,5,6-tetramethyl-5,6-dihydro-3H-pyrimidin-4-one], for which the pIC50 is 7.49.
